The values below come from patent US20140051575A1 (priority 2011, published 2014).

For one data set, the system named is Phytophthora infestans. The format is in vivo. The note with it: tomato plants, preventive spray, 500 ppm of active ingredient, evaluated 7 days after inoculation; 0% = untreated control, 100% = no disease.
Data set [1] is described as follows: Measurement of logP values by HPLC on reversed phase columns (EEC directive 79/831 Annex V.A8). The format is physicochemical. The note with it: pH 2.7, 0.1% formic acid in water / acetonitrile gradient, calibration with alkan-2-ones. As for the experimental part:
Measurement of logP values was performed according EEC directive 79/831 Annex V.A8 by HPLC (High Performance Liquid Chromatography) on reversed phase columns with the following methods:
Measurement of LC-MS was done at pH 2.7 with 0.1% formic acid in water and with acetonitrile (contains 0.1% formic acid) as eluent with a linear gradient from 10% acetonitrile to 95% acetonitrile.
Calibration was done with not branched alkan2-ones (with 3 to 16 carbon atoms) with known logP-values (measurement of logP values using retention times with linear interpolation between successive alkanones). lambda-maX-values were determined using UV-spectra from 200 nm to 400 nm and the peak values of the chromatographic signals.

In turn, `Cc1nnnn1C(=NOCc1csc(NC(=O)C(C)OCC2CCCCC2)n1)c1ccccc1` (stereo not shown) [Example 38] yielded an Eff. % in the data set with Phytophthora infestans of 100%. Also, the “Log P” value in data set [1] was determined as 4.74.
`Cc1nnnn1C(=NOCc1cccc(NC(=O)C(C)OCc2ccccc2)n1)c1ccccc1` (stereo not shown) [Example 51] returned an Eff. % with Phytophthora infestans of 95%. For the same molecule, the lipophilicity (Log P) in data set [1] came out at 4.11.
For `Cn1nnnc1C(=NOCc1cccc(NC(=O)CCOCc2ccccc2)n1)c1ccccc1` [Example 99], in that order: 90% and 3.48.
In the same order, the values of `Cc1nnnn1C(=NOCc1cccc(NC(=O)C(C)(C)CSC2CCCCC2)n1)c1ccccc1` [Example 109] are 95% and 5.08.
In the same order, the values of `Cn1nnnc1C(=NOCc1cccc(NC(=O)COCC2CCCC2)n1)c1ccccc1` [Example 5] are 97% and 4.24.
`CC(OCC(=O)Nc1cccc(CON=C(c2ccccc2)c2nnnn2C)n1)c1ccccc1` (stereo not shown) [Example 95] registered an Eff. % in the data set on Phytophthora infestans of 100%. For the same molecule, the “Log P” value in data set [1] is reported as 3.94.
For `Cc1nnnn1C(=NOCc1csc(NC(=O)COCCC2CCCC2)n1)c1ccccc1` [Example 41], in that order: 98% and 4.34.
On to `Cn1nnnc1C(=NOCc1cccc(NC(=O)COCC2CCCCO2)n1)c1ccccc1` (stereo not shown) [Example 53], for which the “Log P” value in data set [1] was 3.33.
In the data set on Phytophthora infestans, `CC(SC1CCCC1)C(=O)Nc1nc(CON=C(c2ccccc2)c2nnnn2C)cs1` (stereo not shown) [Example 73] came in with an Eff. % of 95%. Moreover, the “Log P” value in data set [1] is recorded as 3.99.
Consider `Cn1nnnc1C(=NOCc1cccc(NC(=O)COCC2CC2)n1)c1ccccc1` [Example 1], for which, in data set [1], the “Log P” value amounted to 3.29.
The molecule `Cn1nnnc1C(=NOCc1csc(NC(=O)C(C)(C)CSC2CCCCC2)n1)c1ccccc1` [Example 102] gave an Eff. % in the data set on Phytophthora infestans of 100%. Besides, the “Log P” value in data set [1] was determined as 4.77.
The molecule `C=CCSC(C)C(=O)Nc1nc(CON=C(c2ccccc2)n2nnnc2C)cs1` (stereo not shown) [Example 85] yielded an Eff. % in the data set with Phytophthora infestans of 98%. For the same molecule, the “Log P” value in data set [1] was 3.35.
As to `Cc1nnnn1C(=NOCc1cccc(NC(=O)CSC2CCCCC2)n1)c1ccccc1` [Example 79], the Eff. % in the data set on Phytophthora infestans was 100%. In addition, the “Log P” value in data set [1] amounted to 4.26.
The molecule `Cn1nnnc1C(=NOCc1cccc(NC(=O)COCCC2CCCC2)n1)c1ccccc1` [Example 11] gave an Eff. % in the data set with Phytophthora infestans of 95%. The log partition coefficient (Log P) in data set [1] is reported as 4.61.
Take `Cn1nnnc1C(=NOCc1csc(NC(=O)COCCC2CCCC2)n1)c1ccccc1` [Example 21]: the Eff. % in the data set on Phytophthora infestans is on record as 95%. Also, the “Log P” value in data set [1] worked out at 4.29.
`CC(OCC1CC1)C(=O)Nc1ccc(Br)c(CON=C(c2ccccc2)c2nnnn2C)n1` (stereo not shown) [Example 3]: in the data set on Phytophthora infestans, the Eff. % is given as 100%. Moreover, the “Log P” value in data set [1] amounted to 4.23.
`Cc1nnnn1C(=NOCc1csc(NC(=O)COCCC2CCCCC2)n1)c1ccccc1` [Example 40] came in with an Eff. % in the data set with Phytophthora infestans of 95%. In data set [1], the “Log P” value is 4.71.
For `C=CCSCC(=O)Nc1nc(CON=C(c2ccccc2)c2nnnn2C)cs1` [Example 72], in that order: 100% and 3.11.
Turning to `CC(OCC1CCCCO1)C(=O)Nc1cccc(CON=C(c2ccccc2)c2nnnn2C)n1` (stereo not shown) [Example 55], in the data set with Phytophthora infestans, the Eff. % is given as 100%. Further, the “Log P” value in data set [1] worked out at 3.67.
Turning to `Cn1nnnc1C(=NOCc1cccc(NC(=O)CSCc2ccccc2)n1)c1ccccc1` [Example 64], the “Log P” value in data set [1] was 3.78.
`Cc1nnnn1C(=NOCc1csc(NC(=O)CSC2CCCC2)n1)c1ccccc1` [Example 90] came in with an Eff. % in the data set with Phytophthora infestans of 95%. The lipophilicity (Log P) in data set [1] is given as 3.65.
In the data set with Phytophthora infestans, `Cn1nnnc1C(=NOCc1cccc(NC(=O)C2CC2c2ncc(C(F)(F)F)cc2Cl)n1)c1ccccc1` (stereo not shown) [Example 92] displayed an Eff. % of 98%. Moreover, the “Log P” value in data set [1] is on record as 4.54.
Regarding `CC(OCC1CCCCC1)C(=O)Nc1cccc(CON=C(c2ccccc2)c2nnnn2C)n1` (stereo not shown) [Example 7], the Eff. % in the data set with Phytophthora infestans is 100%. Moreover, in data set [1], the “Log P” value stood at 5.03.
Molecule `Cc1nnnn1C(=NOCc1csc(NC(=O)COCCC(C)C)n1)c1ccccc1` [Example 46] registered an Eff. % in the data set with Phytophthora infestans of 100%. Besides, the “Log P” value in data set [1] turned out to be 3.87.
Turning to `Cc1nnnn1C(=NOCc1cccc(NC(=O)C(C)OCC2CCC2)n1)c1ccccc1` (stereo not shown) [Example 32], the Eff. % in the data set with Phytophthora infestans was 100%. Further, the “Log P” value in data set [1] is given as 4.26.
`Cc1nnnn1C(=NOCc1csc(NC(=O)CCSCc2ccc(F)cc2)n1)c1ccccc1` [Example 115] had an Eff. % in the data set on Phytophthora infestans of 80%. Also, the “Log P” value in data set [1] came to 3.78.
In the same order, the values of `Cc1nnnn1C(=NOCc1cccc(NC(=O)COCCC2CCCC2)n1)c1ccccc1` [Example 31] are 97% and 4.73.
In turn, `CC(COCc1ccccc1)C(=O)Nc1nc(CON=C(c2ccccc2)c2nnnn2C)cs1` (stereo not shown) [Example 104] came in with an Eff. % with Phytophthora infestans of 100%. The “Log P” value in data set [1] was 3.65.
Regarding `Cn1nnnc1C(=NOCc1csc(NC(=O)CCOCc2ccccc2)n1)c1ccccc1` [Example 106], the Eff. % with Phytophthora infestans is reported as 93%. For the same molecule, in data set [1], the “Log P” value is given as 3.33.
`CC(OCC1CCCCO1)C(=O)Nc1nc(CON=C(c2ccccc2)c2nnnn2C)cs1` (stereo not shown) [Example 59] yielded an Eff. % in the data set on Phytophthora infestans of 100%. In addition, the “Log P” value in data set [1] is given as 3.62.
`C=CCSC(C)C(=O)Nc1cccc(CON=C(c2ccccc2)c2nnnn2C)n1` (stereo not shown) [Example 66] had an Eff. % with Phytophthora infestans of 95%.
For the molecule `Cn1nnnc1C(=NOCc1cccc(NC(=O)CCSCc2ccccc2)n1)c1ccccc1` [Example 101], in the data set with Phytophthora infestans, the Eff. % is 90%. Besides, the “Log P” value in data set [1] is 3.83.
In the case of `Cn1nnnc1C(=NOCc1cccc(NC(=O)C(C)(C)CSC2CCCCC2)n1)c1ccccc1` [Example 94], the Eff. % in the data set with Phytophthora infestans is given as 100%. Besides, in data set [1], the “Log P” value came to 4.98.
In the same order, the values of `Cn1nnnc1C(=NOCc1cccc(NC(=O)COCCC2CCCCC2)n1)c1ccccc1` [Example 10] are 95% and 4.98.
With `CC(OCC(=O)Nc1nc(CON=C(c2ccccc2)c2nnnn2C)cs1)c1ccccc1` (stereo not shown) [Example 105], the Eff. % with Phytophthora infestans was determined as 95%. In data set [1], the “Log P” value is 3.7.
For `Cc1nnnn1C(=NOCc1csc(NC(=O)CSCC2CC2)n1)c1ccccc1` [Example 87], in that order: 100% and 3.31.
In the same order, the values of `Cc1nnnn1C(=NOCc1csc(NC(=O)CSCCC(C)C)n1)c1ccccc1` [Example 81] are 95% and 3.99.
`Cc1nnnn1C(=NOCc1cccc(NC(=O)CCOCc2ccccc2)n1)c1ccccc1` [Example 110]: the Eff. % in the data set on Phytophthora infestans came to 85%. In addition, the “Log P” value in data set [1] stood at 3.55.
For `Cc1nnnn1C(=NOCc1csc(NC(=O)CCSCc2ccccc2)n1)c1ccccc1` [Example 116], in that order: 80% and 3.73.
Regarding `CC(OCC1CCCC1)C(=O)Nc1cccc(CON=C(c2ccccc2)c2nnnn2C)n1` (stereo not shown) [Example 8], the Eff. % with Phytophthora infestans amounted to 100%. The “Log P” value in data set [1] is 4.59.
`Cn1nnnc1C(=NOCc1csc(NC(=O)COCC2CCCCO2)n1)c1ccccc1` (stereo not shown) [Example 57] showed an Eff. % in the data set on Phytophthora infestans of 95%. The “Log P” value in data set [1] is on record as 3.25.
For `Cc1nnnn1C(=NOCc1csc(NC(=O)CCOCc2ccccc2)n1)c1ccccc1` [Example 114], in that order: 93% and 3.37.
In the same order, the values of `Cc1nnnn1C(=NOCc1csc(NC(=O)C(C)(C)CSC2CCCCC2)n1)c1ccccc1` [Example 113] are 98% and 4.85.
For `Cn1nnnc1C(=NOCc1csc(NC(=O)CCSCc2ccc(F)cc2)n1)c1ccccc1` [Example 107], in that order: 95% and 3.73.
For the molecule `Cn1nnnc1C(=NOCc1csc(NC(=O)C2CC2c2ncc(C(F)(F)F)cc2Cl)n1)c1ccccc1` (stereo not shown) [Example 93], the Eff. % with Phytophthora infestans amounted to 98%. In addition, the “Log P” value in data set [1] worked out at 4.37.
With `Cn1nnnc1C(=NOCc1csc(NC(=O)CSC2CCCC2)n1)c1ccccc1` [Example 77], the Eff. % in the data set with Phytophthora infestans was determined as 95%. In addition, the “Log P” value in data set [1] is 3.65.
`CC(COCc1ccccc1)C(=O)Nc1cccc(CON=C(c2ccccc2)c2nnnn2C)n1` (stereo not shown) [Example 97] yielded an Eff. % in the data set on Phytophthora infestans of 100%. The “Log P” value in data set [1] came to 3.85.
With `CC(OCc1ccccc1)C(=O)Nc1cccc(CON=C(c2ccccc2)c2nnnn2C)n1` (stereo not shown) [Example 47], the “Log P” value in data set [1] worked out at 3.92.
For the molecule `CC(C)CCOCC(=O)Nc1cccc(CON=C(c2ccccc2)c2nnnn2C)n1` [Example 43], the “Log P” value in data set [1] worked out at 4.09. This Log P and that of the molecule before are within 0.2 log units of each other.
Consider `Cc1nnnn1C(=NOCc1cccc(NC(=O)C(C)OCC2CCCCC2)n1)c1ccccc1` (stereo not shown) [Example 28], for which the Eff. % in the data set with Phytophthora infestans is reported as 100%. Also, the “Log P” value in data set [1] came out at 5.13.
`Cc1nnnn1C(=NOCc1cccc(NC(=O)COCC2CCCO2)n1)c1ccccc1` (stereo not shown) [Example 61]: the “Log P” value in data set [1] was 2.98.
As to `Cn1nnnc1C(=NOCc1csc(NC(=O)COCCC2CCCCC2)n1)c1ccccc1` [Example 20], the Eff. % with Phytophthora infestans is 100%. In addition, the “Log P” value in data set [1] came out at 4.63.
The molecule `C=CCSC(C)C(=O)Nc1nc(CON=C(c2ccccc2)c2nnnn2C)cs1` (stereo not shown) [Example 75] returned an Eff. % in the data set with Phytophthora infestans of 93%. Also, the “Log P” value in data set [1] is reported as 3.31.
In the data set with Phytophthora infestans, `Cc1nnnn1C(=NOCc1cccc(NC(=O)C(C)OCC2CCCC2)n1)c1ccccc1` (stereo not shown) [Example 29] came in with an Eff. % of 100%. Moreover, the “Log P” value in data set [1] is 4.69.
In the same order, the values of `Cc1nnnn1C(=NOCc1csc(NC(=O)CSCc2ccccc2)n1)c1ccccc1` [Example 86] are 93% and 3.57.
